Assays:
Assay in all cases: relative viability (nuclei count vs DMSO), 5 days (fraction); higher = more cells survive
Cediranib + Alpelisib = compound: COc1cc2c(Oc3ccc4[nH]c(C)cc4c3F)ncnc2cc1OCCCN1CCCC1 [Cediranib] + Cc1nc(NC(=O)N2CCC[C@H]2C(N)=O)sc1-c1ccnc(C(C)(C)C(F)(F)F)c1 [Alpelisib] (partner 2 µM)
Procedure, shortened: (§1)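 Values are medians from duplicate plates. Each reflects relative viability, defined as the nuclei count of treated wells over that of vehicle wells. Lung cancer cell lines in 1536-well plates were pin-tool dosed one day after seeding with one drug alone or with a fixed anchor-drug dose plus five library-drug doses (not always all listed) in √10 steps, then fixed, stained and imaged at 4× after 5 days.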

[1] = compound: O=C(C[C@H]1NCCC[C@@H]1O)Cn1cnc2cc(Br)c(Cl)cc2c1=O (racemic) [Halofuginone] + CCNC(=O)c1noc(-c2cc(C(C)C)c(O)cc2O)c1-c1ccc(CN2CCOCC2)cc1 [Luminespib] (partner 0.01 µM)
Procedure, shortened: as §1

[2] = compound: O=C(C[C@H]1NCCC[C@@H]1O)Cn1cnc2cc(Br)c(Cl)cc2c1=O (racemic) [Halofuginone] + C[C@]1(O)C[C@@H](c2nc(-c3ccc4ccc(-c5ccccc5)nc4c3)c3c(N)nccn32)C1 [Linsitinib] (partner 1 µM)
Procedure, shortened: as §1

Halofuginone + AZD7762 = compound: O=C(C[C@H]1NCCC[C@@H]1O)Cn1cnc2cc(Br)c(Cl)cc2c1=O (racemic) [Halofuginone] + NC(=O)Nc1cc(-c2cccc(F)c2)sc1C(=O)N[C@H]1CCCNC1 [AZD7762] (partner 0.2 µM)
Procedure, shortened: as §1

| Cell Line | relative viability (Cediranib + Alpelisib; first compound 0.04 µM) | relative viability (Cediranib + Alpelisib; first compound 0.1265 µM) | relative viability (Cediranib + Alpelisib; first compound 0.4 µM) | relative viability (Cediranib + Alpelisib; first compound 1.265 µM) | relative viability (Cediranib + Alpelisib; first compound 4 µM) | relative viability ([1]; first compound 0.001 µM) | relative viability ([1]; first compound 0.003162 µM) | relative viability ([1]; first compound 0.01 µM) | relative viability ([1]; first compound 0.03162 µM) | relative viability ([1]; first compound 0.1 µM) | relative viability ([2]; first compound 0.001 µM) | relative viability ([2]; first compound 0.003162 µM) | relative viability ([2]; first compound 0.01 µM) | relative viability ([2]; first compound 0.03162 µM) | relative viability ([2]; first compound 0.1 µM) | relative viability (Halofuginone + AZD7762; first compound 0.001 µM) | relative viability (Halofuginone + AZD7762; first compound 0.003162 µM) | relative viability (Halofuginone + AZD7762; first compound 0.01 µM) | relative viability (Halofuginone + AZD7762; first compound 0.03162 µM) | relative viability (Halofuginone + AZD7762; first compound 0.1 µM) |
| --- | --- | --- | --- | --- | --- | --- | --- | --- | --- | --- | --- | --- | --- | --- | --- | --- | --- | --- | --- | --- |
| NCI-H1651 | 1.04 | 1.03 | 1.02 | 1.01 | 0.805 | 0.7 | 0.797 | 0.802 | 0.65 | 0.427 | 1.07 | 0.978 | 0.994 | 0.6 | 0.332 | 0.485 | 0.487 | 0.476 | 0.457 | 0.466 |
| RERF-LC-KJ | 0.771 | – | 0.769 | 0.761 | 0.739 | 1.47 | 1.27 | 1.22 | 1.25 | 0.887 | 0.972 | 0.932 | 0.843 | 0.891 | 0.967 | 1.1 | 1.15 | 1.05 | 0.96 | 0.956 |
| NCI-H1755 | 1 | 0.919 | 0.854 | 0.918 | 1.01 | 0.469 | 0.41 | 0.392 | 0.565 | 0.445 | 1.06 | 1.02 | 0.971 | 0.985 | 0.768 | 0.442 | 0.407 | 0.469 | 0.399 | 0.303 |
| NCI-H2126 | 0.776 | 0.796 | 0.732 | 0.662 | 0.781 | 0.901 | 0.92 | 0.928 | 0.914 | 0.675 | 0.73 | 0.671 | 0.673 | 0.71 | 0.648 | 1.02 | 0.976 | 1.01 | 0.889 | 0.995 |
| EPLC-272H | 1.06 | – | 0.962 | 0.97 | 1 | 0.329 | 0.169 | 0.409 | 0.479 | 0.206 | 1.28 | 1.17 | 1.06 | 1.2 | 1.13 | 0.208 | 0.0783 | 0.216 | 0.215 | 0.19 |
| NCI-H1975 | 0.716 | 0.621 | 0.619 | 0.677 | 0.591 | 0.24 | 0.215 | 0.272 | 0.241 | 0.183 | 1.09 | 0.924 | 0.976 | 0.497 | 0.15 | 0.737 | 0.792 | 0.666 | 0.644 | 0.402 |
| NCI-H3122 | 0.894 | 1.06 | 0.731 | 0.852 | 0.906 | 0.0978 | 0.0825 | 0.0899 | 0.0925 | 0.148 | 1.01 | 1.04 | 0.993 | 0.952 | 0.968 | 0.937 | 1.09 | 0.985 | 0.94 | 0.922 |
| BEN | 1.17 | 0.814 | 0.906 | 1.04 | 0.953 | 0.203 | 0.348 | 0.45 | 0.322 | 0.14 | 0.965 | 0.912 | 1.03 | 0.841 | 0.352 | 0.851 | 0.685 | 0.844 | 0.654 | 0.418 |
| NCI-H1915 | 1.05 | 1 | 0.997 | 1.08 | 1.09 | 0.787 | 0.826 | 0.794 | 0.719 | 0.55 | 1.05 | 1.1 | 1 | 1.06 | 0.974 | 0.7 | 0.682 | 0.736 | 0.656 | 0.68 |
| NCI-H650 | 1.06 | 1.02 | 1.05 | 1.12 | 1.21 | 0.793 | 0.738 | 0.822 | 0.667 | 0.59 | 1.03 | 0.924 | 0.877 | 0.811 | 0.457 | 1.06 | 0.848 | 1.21 | 1 | 0.594 |
| NCI-H460 | 0.66 | 0.525 | 0.418 | 0.526 | 0.336 | 0.0339 | 0.0272 | 0.0348 | 0.0271 | 0.0193 | 0.696 | 0.833 | 0.78 | 0.404 | 0.0417 | 0.725 | 0.601 | 0.673 | 0.605 | 0.305 |
| LCLC-103H | 1.03 | 1.08 | 0.98 | 0.932 | 0.917 | 0.948 | 1.1 | 0.968 | 0.989 | 0.805 | 1.12 | 1.48 | 1.04 | 1.09 | 1.01 | 0.808 | 0.851 | 0.784 | 0.793 | 0.695 |
| HCC-827 | 1.06 | – | 0.957 | 0.985 | 0.926 | 0.453 | 0.473 | 0.478 | 0.705 | 0.504 | 0.968 | 0.983 | 0.978 | 1.02 | 0.892 | 0.242 | 0.183 | 0.217 | 0.2 | 0.253 |
| NCI-H322M | 0.687 | 0.84 | 0.655 | 0.723 | 0.685 | 0.944 | 0.855 | 0.915 | 0.719 | 0.318 | 0.919 | 1.02 | 0.907 | 1.04 | 0.926 | 0.517 | 0.708 | 0.526 | 0.614 | 0.426 |
| NCI-H2170 | 0.823 | 0.901 | 0.744 | 0.748 | 0.882 | 0.681 | 0.631 | 0.557 | 0.758 | 0.603 | – | – | – | – | – | 0.929 | 0.935 | 0.875 | 0.886 | 0.866 |
| HCC-366 | 0.402 | 0.316 | 0.363 | 0.401 | 0.388 | – | – | – | – | – | 0.638 | 0.69 | 0.692 | 0.618 | 0.126 | 0.282 | 0.321 | 0.323 | 0.336 | 0.317 |
| HCC-78 | 0.361 | 0.379 | 0.323 | 0.386 | 0.287 | – | – | – | – | – | 0.479 | 0.579 | 0.484 | 0.706 | 0.312 | 0.657 | 0.672 | 0.55 | 0.652 | 0.643 |

From the supplement of paper PMC10307832
